Data: patent publication US9018206B2, “Carboxamide compounds and their use as calpain inhibitors” (AbbVie Deutschland GmbH & Co. KG, priority 2009, dated 2015)

How the values were obtained:
Type in all cases: biochemical
[1] = target: T1, calpain-I isolated from human erythrocytes (Homo sapiens, UniProt P07384); experiment: Calpain I enzyme inhibition in vitro (kinetic fluorescence assay); settings: apparent Ki from IC50 (Cheng-Prussoff); 20 nM calpain-I, 100 μM Suc-Leu-Tyr-AMC, pH 7.3, room temperature
T1 construct: calpain-I—isolated from human erythrocytes; purchased Calbiochem 208713; host or cells: human erythrocytes (tissue-derived)
T1 sequence (P07384 1-714): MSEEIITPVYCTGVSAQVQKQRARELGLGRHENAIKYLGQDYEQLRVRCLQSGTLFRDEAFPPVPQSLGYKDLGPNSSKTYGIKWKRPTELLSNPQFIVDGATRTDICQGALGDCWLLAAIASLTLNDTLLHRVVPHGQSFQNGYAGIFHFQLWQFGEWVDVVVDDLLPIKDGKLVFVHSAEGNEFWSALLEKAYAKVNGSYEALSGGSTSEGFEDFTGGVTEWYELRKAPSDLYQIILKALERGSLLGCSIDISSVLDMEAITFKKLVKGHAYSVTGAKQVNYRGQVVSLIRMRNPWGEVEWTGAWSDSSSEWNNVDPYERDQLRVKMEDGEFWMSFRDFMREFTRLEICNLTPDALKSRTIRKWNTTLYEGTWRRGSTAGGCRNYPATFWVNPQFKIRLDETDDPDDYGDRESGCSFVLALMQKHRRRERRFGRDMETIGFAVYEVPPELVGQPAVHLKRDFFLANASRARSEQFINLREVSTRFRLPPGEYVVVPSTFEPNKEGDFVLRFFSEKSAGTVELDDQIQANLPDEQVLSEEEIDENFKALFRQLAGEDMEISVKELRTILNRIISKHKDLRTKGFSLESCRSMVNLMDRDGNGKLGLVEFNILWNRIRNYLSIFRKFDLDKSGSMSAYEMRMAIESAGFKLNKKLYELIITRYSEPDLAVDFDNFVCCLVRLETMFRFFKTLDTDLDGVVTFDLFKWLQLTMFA
T1 sequence (P04632 1-268 partner): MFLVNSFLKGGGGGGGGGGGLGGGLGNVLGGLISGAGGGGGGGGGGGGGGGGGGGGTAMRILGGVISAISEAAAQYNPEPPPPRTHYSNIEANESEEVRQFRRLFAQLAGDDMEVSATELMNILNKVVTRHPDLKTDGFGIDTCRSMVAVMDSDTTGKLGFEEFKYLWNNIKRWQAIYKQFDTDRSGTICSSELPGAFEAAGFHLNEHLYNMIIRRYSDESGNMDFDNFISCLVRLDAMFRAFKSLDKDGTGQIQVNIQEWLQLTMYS
Method: (§1) Testing for blockade of the corresponding enzymic activities was carried out by means of kinetic fluorescence assays (excitation 390 nm, emission 460 nm).
(§2) Apparent Ki values were calculated from the experimentally determined IC50 values by the Cheng-Prussoff relation assuming a reversible competitive enzyme inhibition. The Km values of the substrates used under the assay conditions indicated above were: 90 μM (Z-Phe-Arg-AMC, cathepsin B), 10 μM (Z-Gly-Pro-Arg-AMC, cathepsin K), 2 μM (Z-Phe-Arg-AMC, cathepsin L), and 30 μM (Z-Val-Val-Arg-AMC, cathepsin S).
(§3) The indicated Ki values are averages of the inhibition constants calculated on the basis of 2 to 4 independent dose-effect plots.
(§4) • 20 nM calpain-I—isolated from human erythrocytes (Calbiochem #208713), 100 μM Suc-Leu-Tyr-AMC (Bachem #I-1355) as substrate in buffer with 62 mM imidazole, 0.3 mM CaCl2, 0.10% CHAPS, 0.05% BSA, 1 mM DTT at pH 7.3 and room temperature. 1. Cathepsin B: • 0.25 nM cathepsin B—isolated from human liver (Calbiochem #219362), 100 μM Z-Phe-Arg-AMC (Bachem #I-1160) as substrate 50 mM MES, 2 mM EDTA, 0.05% Brij 35, 2.5 mM L-cysteine, pH 6.0, room temperature. 3. Cathepsin K: • 3 nM cathepsin K activated from recombinant human procathepsin K from E. coli (Calbiochem #342001), 10 μM Z-Gly-Pro-Arg-AMC (Biomol #P-142) as substrate in 50 mM MES, 2 mM EDTA, 0.05% Brij 35, 2.5 mM L-cysteine, pH 6.0, room temperature. 4. Cathepsin L: • 1 nM cathepsin L—isolated from human liver (Calbiochem #219402), 2 μM Z-Phe-Arg-AMC (Bachem #I-1160) as substrate in 50 mM MES, 2 mM EDTA, 0.05% Brij 35, 2.5 mM L-cysteine, pH 6.0, room temperature. 5. Cathepsin S: • 0.5 nM recombinant human cathepsin S from E. coli (Calbiochem #219343), 20 μM Z-Val-Val-Arg-AMC (Bachem #I-1540) as substrate in 50 mM MES, 2 mM EDTA, 0.05% Brij 35, 2.5 mM L-cysteine, pH 6.0, room temperature.

[2] = target: T2, cathepsin K activated from recombinant human procathepsin K (Homo sapiens, UniProt P43235); experiment: Cathepsin K enzyme inhibition in vitro (kinetic fluorescence assay); settings: Ki(cathepsin K)/Ki(calpain) ratio
T2 construct: purchased Calbiochem 342001; host or cells: E. coli
T2 sequence (P43235 115-329): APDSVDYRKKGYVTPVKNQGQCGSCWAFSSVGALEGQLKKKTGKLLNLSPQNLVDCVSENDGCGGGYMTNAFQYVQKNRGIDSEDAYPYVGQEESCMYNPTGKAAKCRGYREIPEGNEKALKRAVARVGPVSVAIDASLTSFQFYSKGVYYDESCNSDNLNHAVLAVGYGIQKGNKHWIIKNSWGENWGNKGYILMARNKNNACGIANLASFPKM
Method: as §1, §2, §3, §4

[3] = target: T3, recombinant human cathepsin S (Homo sapiens, UniProt P25774); experiment: Cathepsin S enzyme inhibition in vitro (kinetic fluorescence assay); settings: Ki(cathepsin S)/Ki(calpain) ratio
T3 construct: purchased Calbiochem 219343; host or cells: E. coli
T3 sequence (P25774 115-331): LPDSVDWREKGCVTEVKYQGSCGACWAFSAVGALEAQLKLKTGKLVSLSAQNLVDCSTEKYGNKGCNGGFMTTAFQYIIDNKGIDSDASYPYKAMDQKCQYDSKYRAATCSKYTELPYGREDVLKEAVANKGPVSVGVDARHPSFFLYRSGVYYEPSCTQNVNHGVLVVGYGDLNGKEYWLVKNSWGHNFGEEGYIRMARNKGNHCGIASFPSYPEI
Method: as §1, §2, §3, §4

[4] = target: T4, cathepsin L isolated from human liver (Homo sapiens, UniProt P07711); experiment: Cathepsin L enzyme inhibition in vitro (kinetic fluorescence assay); settings: Ki(cathepsin L)/Ki(calpain) ratio
T4 construct: cathepsin L—isolated from human liver; purchased Calbiochem 219402; host or cells: human liver (tissue-derived)
T4 sequence (P07711 114-333): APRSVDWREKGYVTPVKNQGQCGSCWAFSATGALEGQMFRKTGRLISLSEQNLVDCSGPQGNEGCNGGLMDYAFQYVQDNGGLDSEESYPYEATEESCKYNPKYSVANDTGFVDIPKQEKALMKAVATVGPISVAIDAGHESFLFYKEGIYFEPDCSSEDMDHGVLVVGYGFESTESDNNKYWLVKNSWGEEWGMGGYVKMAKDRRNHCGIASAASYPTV
Method: as §1, §2, §3, §4

[5] = target: T5, cathepsin B isolated from human liver (Homo sapiens, UniProt P07858); experiment: Cathepsin B enzyme inhibition in vitro (kinetic fluorescence assay); settings: Ki(cathepsin B)/Ki(calpain) ratio
T5 construct: cathepsin B—isolated from human liver; purchased Calbiochem 219362; host or cells: human liver (tissue-derived)
Method: as §1, §2, §3, §4

**Q.** NC(=O)C(=O)C(Cc1ccccc1)NC(=O)[C@H]1CCC(=O)N1Cc1ccccc1 (mixture of isomers) [Example 1, (2R)—N-(4-Amino-3,4-dioxo-1-phenylbutan-2-yl)-1-benzyl-5-oxopyrrolidine-2-carboxamide] was tested. Which Ki [1] did it give?
**A.** < 50 nM

**Q.** What about the “Sel cat. K” value [2] of the same compound?
**A.** ++ (10<Ki(cathepsin B)/Ki(calpain)≦30)

**Q.** And the “Sel cat. S” value [3]?
**A.** +++ (Ki(cathepsin S)/Ki(calpain) ratio of >100)

**Q.** What about the “Sel cat. L” value [4] of the same compound?
**A.** ++ (10<Ki(cathepsin B)/Ki(calpain)≦30)

**Q.** And the “Sel cat. B” value [5]?
**A.** ++ (10<Ki(cathepsin B)/Ki(calpain)≦30)

**Q.** O=C(NC1CC1)C(=O)C(Cc1ccccc1)NC(=O)[C@H]1CCC(=O)N1Cc1ccccc1Cl (mixture of isomers) [Example 46, (2R)-1-(2-Chlorobenzyl)-N-(4-(cyclopropylamino)-3,4-dioxo-1-phenylbutan-2-yl)-5-oxopyrrolidine-2-carboxamide] was tested. Which Ki [1] did it give?
**A.** 50 to 100 nM

**Q.** And the “Sel cat. K” value [2]?
**A.** +++ (Ki(cathepsin K)/Ki(calpain) ratio of >30)

**Q.** What about the “Sel cat. S” value [3] of the same compound?
**A.** +++ (Ki(cathepsin S)/Ki(calpain) ratio of >100)

**Q.** What about the “Sel cat. L” value [4] of the same compound?
**A.** +++ (Ki(cathepsin L)/Ki(calpain) ratio of >30)

**Q.** What about the “Sel cat. B” value [5] of the same compound?
**A.** ++ (10<Ki(cathepsin B)/Ki(calpain)≦30)

**Q.** Which results are given for CCNC(=O)C(=O)C(Cc1ccccc1)NC(=O)[C@H]1CCC(=O)N1Cc1ccccc1Cl (mixture of isomers) [Example 47, (2R)-1-(2-Chlorobenzyl)-N-(4-(ethylamino)-3,4-dioxo-1-phenylbutan-2-yl)-5-oxopyrrolidine-2-carboxamide]?
**A.** Ki [1]: 100 to 600 nM; Sel cat. K [2]: +++ (Ki(cathepsin K)/Ki(calpain) ratio of >30); Sel cat. S [3]: ++ (30<Ki(cathepsin B)/Ki(calpain)≦100); Sel cat. L [4]: +++ (Ki(cathepsin L)/Ki(calpain) ratio of >30); Sel cat. B [5]: +++ (Ki(cathepsin B)/Ki(calpain) ratio of >30)

**Q.** Which results are given for O=C(NCc1nccs1)C(=O)C(Cc1ccccc1)NC(=O)[C@H]1CCC(=O)N1Cc1ccccc1 (mixture of isomers) [Example 59, (2R)-1-Benzyl-N-(3,4-dioxo-1-phenyl-4-(thiazol-2-ylmethylamino)butan-2-yl)-5-oxopyrrolidine-2-carboxamide]?
**A.** Ki [1]: 100 to 600 nM; Sel cat. K [2]: +++ (Ki(cathepsin K)/Ki(calpain) ratio of >30); Sel cat. S [3]: +++ (Ki(cathepsin S)/Ki(calpain) ratio of >100); Sel cat. L [4]: ++ (10<Ki(cathepsin B)/Ki(calpain)≦30); Sel cat. B [5]: +++ (Ki(cathepsin B)/Ki(calpain) ratio of >30)

**Q.** For O=C(NCc1cccs1)C(=O)C(Cc1ccccc1)NC(=O)[C@H]1CCC(=O)N1Cc1ccccc1 (mixture of isomers) [Example 60, (2R)-1-Benzyl-N-(3,4-dioxo-1-phenyl-4-(thiophen-2-ylmethylamino)butan-2-yl)-5-oxopyrrolidine-2-carboxamide], which Ki [1] is on record?
**A.** 50 to 100 nM

**Q.** What about the “Sel cat. K” value [2] of the same compound?
**A.** +++ (Ki(cathepsin K)/Ki(calpain) ratio of >30)

**Q.** What about the “Sel cat. S” value [3] of the same compound?
**A.** +++ (Ki(cathepsin S)/Ki(calpain) ratio of >100)

**Q.** And the “Sel cat. L” value [4]?
**A.** ++ (10<Ki(cathepsin B)/Ki(calpain)≦30)

**Q.** What about the “Sel cat. B” value [5] of the same compound?
**A.** +++ (Ki(cathepsin B)/Ki(calpain) ratio of >30)

**Q.** For O=C(NC1CC1)C(=O)C(Cc1ccccc1)NC(=O)[C@H]1CCC(=O)N1Cc1c(Cl)cccc1Cl (mixture of isomers) [Example 61, (2R)—N-(4-(Cyclopropylamino)-3,4-dioxo-1-phenylbutan-2-yl)-1-(2,6-dichlorobenzyl)-5-oxopyrrolidine-2-carboxamide], which Ki [1] is on record?
**A.** 100 to 600 nM

**Q.** What about the “Sel cat. K” value [2] of the same compound?
**A.** +++ (Ki(cathepsin K)/Ki(calpain) ratio of >30)

**Q.** What about the “Sel cat. S” value [3] of the same compound?
**A.** +++ (Ki(cathepsin S)/Ki(calpain) ratio of >100)

**Q.** And the “Sel cat. L” value [4]?
**A.** +++ (Ki(cathepsin L)/Ki(calpain) ratio of >30)

**Q.** What about the “Sel cat. B” value [5] of the same compound?
**A.** + (5<Ki(cathepsin B)/Ki(calpain)≦10)

**Q.** How did the Ki [1] turn out when CCNC(=O)C(=O)C(Cc1ccccc1)NC(=O)[C@H]1CCC(=O)N1Cc1c(Cl)cccc1Cl (mixture of isomers) [Example 62, (2R)-1-(2,6-Dichlorobenzyl)-N-(4-(ethylamino)-3,4-dioxo-1-phenylbutan-2-yl)-5-oxopyrrolidine-2-carboxamide] was run?
**A.** 100 to 600 nM

**Q.** And the “Sel cat. K” value [2]?
**A.** ++ (10<Ki(cathepsin B)/Ki(calpain)≦30)

**Q.** What about the “Sel cat. S” value [3] of the same compound?
**A.** ++ (30<Ki(cathepsin B)/Ki(calpain)≦100)

**Q.** And the “Sel cat. L” value [4]?
**A.** ++ (10<Ki(cathepsin B)/Ki(calpain)≦30)

**Q.** And the “Sel cat. B” value [5]?
**A.** ++ (10<Ki(cathepsin B)/Ki(calpain)≦30)

**Q.** With O=C(NCc1ccncc1)C(=O)C(Cc1ccccc1)NC(=O)[C@H]1CCC(=O)N1Cc1ccccc1 (mixture of isomers) [Example 63, (2R)-1-Benzyl-N-(3,4-dioxo-1-phenyl-4-(pyridin-4-ylmethylamino)butan-2-yl)-5-oxopyrrolidine-2-carboxamide] as the compound, how does the Ki [1] read?
**A.** 50 to 100 nM

**Q.** What about the “Sel cat. K” value [2] of the same compound?
**A.** +++ (Ki(cathepsin K)/Ki(calpain) ratio of >30)

**Q.** What about the “Sel cat. S” value [3] of the same compound?
**A.** +++ (Ki(cathepsin S)/Ki(calpain) ratio of >100)

**Q.** What about the “Sel cat. L” value [4] of the same compound?
**A.** +++ (Ki(cathepsin L)/Ki(calpain) ratio of >30)

**Q.** What about the “Sel cat. B” value [5] of the same compound?
**A.** +++ (Ki(cathepsin B)/Ki(calpain) ratio of >30)

**Q.** How did the Ki [1] turn out when O=C(Nc1ccccc1)C(=O)C(Cc1ccccc1)NC(=O)[C@H]1CCC(=O)N1Cc1ccccc1 (mixture of isomers) [Example 65, (2R)-1-Benzyl-N-(3,4-dioxo-1-phenyl-4-(phenylamino)butan-2-yl)-5-oxopyrrolidine-2-carboxamide] was run?
**A.** 50 to 100 nM

**Q.** And the “Sel cat. K” value [2]?
**A.** +++ (Ki(cathepsin K)/Ki(calpain) ratio of >30)

**Q.** And the “Sel cat. S” value [3]?
**A.** +++ (Ki(cathepsin S)/Ki(calpain) ratio of >100)

**Q.** What about the “Sel cat. L” value [4] of the same compound?
**A.** +++ (Ki(cathepsin L)/Ki(calpain) ratio of >30)

**Q.** And the “Sel cat. B” value [5]?
**A.** +++ (Ki(cathepsin B)/Ki(calpain) ratio of >30)

**Q.** With NC(=O)C(=O)C(Cc1ccccc1)NC(=O)[C@H]1CCC(=O)N1c1ccccc1 (stereo partly drawn) [Example 15, (2R)—N-(4-Amino-3,4-dioxo-1-phenylbutan-2-yl)-5-oxo-1-phenylpyrrolidine-2-carboxamide] as the compound, how does the “Sel cat. K” value [2] read?
**A.** + (5<Ki(cathepsin K)/Ki(calpain)≦10)

**Q.** What about the “Sel cat. S” value [3] of the same compound?
**A.** + (10<Ki(cathepsin S)/Ki(calpain)≦30)

**Q.** And the “Sel cat. L” value [4]?
**A.** + (5<Ki(cathepsin L)/Ki(calpain)≦10)

**Q.** And the “Sel cat. B” value [5]?
**A.** ++ (10<Ki(cathepsin B)/Ki(calpain)≦30)
